# Experimental data from patent publication US20110021531A1, “OXAZOLE DERIVATIVES USEFUL AS INHIBITORS OF FAAH” (priority 2009, published 2011).
# pIC50: −log10 of the molar value.
# Key:
# [1] = molecular target: T1, human FAAH (Fatty Acid Amide Hydrolase) (Homo sapiens, UniProt O00519); assay: FAAH enzyme assay on lysate of CHO cells expressing human FAAH; format: biochemical
# T1 construct: The full length FAAH was subcloned into the mammalian expression vector, pcDEF.neo
# T1 sequence (O00519 1-579): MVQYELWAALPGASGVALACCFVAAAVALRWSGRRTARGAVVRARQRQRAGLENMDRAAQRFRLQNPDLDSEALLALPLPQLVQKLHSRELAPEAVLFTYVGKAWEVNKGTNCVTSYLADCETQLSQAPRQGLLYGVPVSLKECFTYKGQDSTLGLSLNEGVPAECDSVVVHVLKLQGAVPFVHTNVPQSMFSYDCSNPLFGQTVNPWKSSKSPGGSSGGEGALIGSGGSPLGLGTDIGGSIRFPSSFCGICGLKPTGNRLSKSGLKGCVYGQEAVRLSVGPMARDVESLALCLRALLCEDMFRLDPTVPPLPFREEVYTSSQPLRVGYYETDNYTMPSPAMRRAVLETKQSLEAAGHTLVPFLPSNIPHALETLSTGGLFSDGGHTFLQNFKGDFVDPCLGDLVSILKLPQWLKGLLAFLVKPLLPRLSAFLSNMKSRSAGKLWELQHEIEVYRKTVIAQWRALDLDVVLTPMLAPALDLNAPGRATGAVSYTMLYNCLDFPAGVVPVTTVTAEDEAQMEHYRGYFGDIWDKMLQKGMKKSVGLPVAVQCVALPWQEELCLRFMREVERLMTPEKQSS
# Source text: (§1) To assist in assay development stable cell lines for human, murine and rat full length FAAH were developed. Human FAAH cDNA (Accession No: NM_001441.1) was purchased from Origene (Rockville, Md.). The full length FAAH was subcloned into the mammalian expression vector, pcDEF.neo, using XbaI and EcoRI restriction sites and used for stable cell line generation.
# CHO cells expressing FAAH were used to prepare either crude cell lysate or microsome fractions. To harvest cells, tissue culture media was decanted, the monolayer washed three times with Ca^++Mg^++ free PBS and cells recovered after […] in enzyme free dissociation media (Millipore Corp, Billerica, Mass.). Cells were collected by centrifuging at 2000 rpm for 15 min. and the cell pellet re-suspended with 50 mM HEPES (pH 7.4) containing 1 mM EDTA and the protease inhibitors aprotinin (1 mg/ml) and leupeptin (100 μM). The suspension was sonicated at 4° C. and the cell lysate recovered after centrifuging at 12,000×g (14,600 rpm, SS34 rotor) for 20 min at 4° C. to form a crude pellet of cell debris, nuclei, peroxisomes, lysosomes, and mitochondria; the supernatant or cell lysate was used for FAAH enzyme assay. In some cases, microsomes fractions enriched in FAAH were prepared by centrifuging the cell lysate further at 27,000 rpm (100,000×g) in SW28 rotor for 50 minutes at 4° C. The pellet containing FAAH-enriched microsomes was re-suspend in 50 mM HEPES, (pH 7.4) 1 mM EDTA, and any remaining DNA sheared by passage of material through a 23 gauge needle and aliquots of enzyme were store at −80° C. prior to use.
# (§2) (American Radiolabeled Chemicals; 1 mCi/ml) with FAAH (Life Sciences (1995), 56, 1999-2005 and Journal of Pharmacology and Experimented Therapeutics (1997), 283, 729-734), Analytical. Biochemistry (2003), 318, 270-5. In addition, routine assays were performed monitoring hydrolysis of arachidonyl-7-amino-4-methylcoumarin amide (AAMCA) by following increase in fluorescence upon release of 7-amino 4-methyl coumarin (λEX=355 nm, (λEM=460 nm). Analytical. Biochemistry (2005). 343, 143-51
# (§3) Assays are performed on either cell lysate or microsome fractions prepared as described or in whole cell format employing either the fluorescent substrate AAMCA (Cayman chemical, Ann Arbor, Mich.,) or ^3H-anandmaide ([ETHANOLAMINE-1-3H]American Radiolabeled Chemicals; 1 mCi/ml). The cell lysate or microsome assay is performed in Costar black wall, clear bottom plates by adding FAAH_CF10 (whole cell, cell lysate or microsome) in assay buffer (50 mM Phosphate, pH 8.0, 1 mM EDTA, 200 mM KCl, 0.2% glycerol, 0.1% fatty acid free BSA) to each well, followed by either DMSO or compound and allowed to incubate at 22-25° C. for fifteen minutes. AAMCA substrate was used to achieve a final concentration of 1 μM and reaction allowed to proceed at room temperature for 1-3 hours. Fluorescent release as a measure of FAAH activity was monitored by reading the plate in a CytoFluor Multiplate Reader (Ex: […]). Whole cell assay is conducted with cells harvested after rinsing tissue culture flasks three times with Ca^++Mg^++ free PBS, incubating for 10 min in Enzyme free dissociation media and centrifuging for 5 minutes at 1,000 rpm in table top centrifuge. Cells are resuspended in assay buffer at desired cell number in (4×10^4 cells/assay in 96-well format; 1×10^4 cells/assay in 384-well format) and assayed as described.
# Alternatively, assays are performed using anandamide [ethanolamine 1-^3H] (specific activity of 10 Ci/mmol) diluted with cold anandamide to achieve a final assay concentration of 1 μM anandamide (˜50,000 cpm). Enzyme (CHO cell lysate, brain or liver homogenate) is incubated in assay buffer (50 mM Phosphate, pH 8.0, 1 mM EDTA, 200 mM KCl, 0.2% glycerol, 0.1% fatty acid free BSA) with inhibitor at 25° C. for 30 minutes. The reaction was terminated by addition of 2 volumes of chloroform:methanol (1:1) and mixed by vortexing. […]
# [2] = molecular target: T1, human FAAH (Fatty Acid Amide Hydrolase); assay: FAAH whole cell assay, CHO cells expressing human FAAH; format: cell-based
# Source text: as §1
# (§4) Murine (accession number NM_010173) and Rat FAAH (accession number NM_024132) was amplified by reverse transcriptase polymerase chain reaction (RT-PCR) from brain cDNA (BD Biosciences, San Jose, Calif.) using primers 1 and 2 or primers 1 and 3 respectively (see Table). The resulting PCR product was ligated into pCR4 TOPO and DNA sequence confirmed. The full length murine FAAH was subcloned into the mammalian expression vector, pcDEFneo using either EcoRI (murine) or KpnI and EcoRI (rat) restriction sites. Chinese hamster ovary cells (CHO) were transfected following manufacturers protocol (AMAXA). Forty eight hours post transfection, cells were trypsinized and transferred to 96 well plates in Iscove's DMEM media supplemented with 2 mM Glutamine, 10% fetal calf serum, 1 mg/ml geneticin and HT Supplement (0.1 mM sodium hypoxanthine, 0.016 mM thymidine) in order to isolate single clones. Following selection in geneticin, individual clones were selected and FAAH activity was assessed using a whole cell fluorescent anandamide assay, modified from Ramarao et al (2005). Following removal of tissue culture media cells were dislodged following addition of Cellstripper (Mediatech, Inc. Manassas, Va.) and transferred to 96 well black clear bottom assay plate, centrifuged at 1,000 rpm for 3 mins and media removed and replaced with assay buffer (50 mM Iris pH8.0, 1 mM EDTA, 0.1% fatty acid free BSA). The reaction was initiated by addition of fluorescent substrate, AMC Arachidonoyl Amide (Cayman Chemical, Ann Arbor, Mich.) to 1 μM and reaction allowed to proceed for 2 hours at room temperature. Release of fluorescence was monitored in a CytoFluor Multiplate Reader. Cells expressing the highest amount of FAAH activity were selected for study with FAAH inhibitors.
# as §2, §3
# [3] = molecular target: T2, rat FAAH (Fatty Acid Amide Hydrolase) (Rattus norvegicus, UniProt P97612); assay: FAAH whole cell assay, CHO cells expressing rat FAAH; format: cell-based
# T2 sequence (P97612 1-579): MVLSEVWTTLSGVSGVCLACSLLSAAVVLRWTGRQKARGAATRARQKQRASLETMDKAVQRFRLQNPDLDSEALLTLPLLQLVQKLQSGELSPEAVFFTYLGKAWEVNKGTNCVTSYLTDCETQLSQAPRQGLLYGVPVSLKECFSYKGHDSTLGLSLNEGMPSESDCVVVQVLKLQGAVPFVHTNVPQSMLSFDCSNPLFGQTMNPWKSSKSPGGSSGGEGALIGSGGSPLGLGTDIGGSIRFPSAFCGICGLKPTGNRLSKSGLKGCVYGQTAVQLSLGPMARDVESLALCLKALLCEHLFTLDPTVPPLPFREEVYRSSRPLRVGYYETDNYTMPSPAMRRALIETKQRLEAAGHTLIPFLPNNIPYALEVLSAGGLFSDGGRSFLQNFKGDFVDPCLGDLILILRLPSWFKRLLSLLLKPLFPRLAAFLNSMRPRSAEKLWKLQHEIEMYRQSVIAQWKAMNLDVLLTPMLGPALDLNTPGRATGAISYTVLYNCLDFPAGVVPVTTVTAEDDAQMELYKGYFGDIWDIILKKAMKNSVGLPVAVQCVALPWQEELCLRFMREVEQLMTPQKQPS
# Source text: as §1, §4, §2, §3
smiles,measurement,setting,value
"Fc1ccc(-c2nc(-c3ccc(-c4ncon4)nc3)c(Sc3ccc(Cl)cn3)o2)cc1 [Ex 71, 5-Chloro-2-({2-(4-fluorophenyl)-4-[6-(1,2,4-oxadiazol-3-yl)pyridin-3-yl]-1,3-oxazol-5-yl}sulfanyl)pyridine]",pIC50,[1],8.00
same,pIC50,[2],7.52
same,pIC50,[3],7.85
"CC(C)(O)c1ncc(-c2nc(-c3ccc(F)cc3)oc2Sc2ccc(Cl)cn2)cn1 [Ex 74, 2-(5-{5-[(5-Chloropyridin-2-yl)sulfanyl]-2-(4-fluorophenyl)-1,3-oxazol-4-yl}pyrimidin-2-yl)propan-2-ol]",pIC50,[1],8.10
same,pIC50,[2],7.43
same,pIC50,[3],7.47
"CS(=O)(=O)c1ccc(-c2nc(-c3ccc(F)cc3)oc2Sc2ccc(Cl)cn2)cc1 [Ex 78, 5-Chloro-2-({2-(4-fluorophenyl)-4-[4-(methylsulfonyl)phenyl]-1,3-oxazol-5-yl}sulfanyl)pyridine]",pIC50,[1],7.55
same,pIC50,[2],7.16
same,pIC50,[3],7.41
"CC(C)(O)c1ccc(-c2nc(-c3ccc(F)cc3)oc2Sc2ccc(Cl)cn2)cc1 [Ex 80, 2-(4-{5-[(5-Chloropyridin-2-yl)sulfanyl]-2-(4-fluorophenyl)-1,3-oxazol-4-yl}phenyl)propan-2-ol]",pIC50,[1],7.46
same,pIC50,[2],7.17
same,pIC50,[3],7.60
"CC(C)(O)c1ccc(-c2nc(C3CC3)oc2Sc2ccc(Cl)cn2)cn1 [Ex 90, 2-(5-{5-[(5-Chloropyridin-2-yl)sulfanyl]-2-cyclopropyl-1,3-oxazol-4-yl}pyridin-2-yl)propan-2-ol]",pIC50,[1],7.34
same,pIC50,[2],6.00
same,pIC50,[3],6.61
"CC(C)(O)c1ccc(-c2nc(-c3ccc(F)cc3)oc2Sc2ccc(Cl)cn2)nn1 [Ex 96, 2-(6-{5-[(5-Chloropyridin-2-yl)sulfanyl]-2-(4-fluorophenyl)-1,3-oxazol-4-yl}pyridazin-3-yl)propan-2-ol]",pIC50,[1],7.77
same,pIC50,[2],6.88
same,pIC50,[3],7.20
"CC(C)(O)c1cc(-c2nc(-c3ccc(F)cc3)oc2Sc2ccc(Cl)cn2)on1 [Ex 98, 2-(5-{5-[(5-Chloropyridin-2-yl)sulfanyl]-2-(4-fluorophenyl)-1,3-oxazol-4-yl}isoxazol-3-yl)propan-2-ol]",pIC50,[1],7.36
same,pIC50,[2],6.65
same,pIC50,[3],7.46
"CC(C)(O)c1csc(-c2nc(-c3ccc(F)cc3)oc2Sc2ccc(Cl)cn2)n1 [Ex 100, 2-(2-{5-[(5-Chloropyridin-2-yl)sulfanyl]-2-(4-fluorophenyl)-1,3-oxazol-4-yl}-1,3-thiazol-4-yl)propan-2-ol]",pIC50,[1],6.79
same,pIC50,[2],6.47
same,pIC50,[3],7.41
"CS(=O)(=O)c1ccc(-c2nc(-c3ccc(F)cc3)oc2Sc2ccc(Cl)cn2)cn1 [Ex 102, 5-Chloro-2-({2-(4-fluorophenyl)-4-[6-(methylsulfonyl)pyridin-3-yl]-1,3-oxazol-5-yl}sulfanyl)pyridine]",pIC50,[1],7.92
same,pIC50,[2],7.46
same,pIC50,[3],7.77
"CS(=O)(=O)c1ccc(-c2nc(-c3ccc(F)cc3)oc2Sc2ncc(Cl)cn2)cn1 [Ex 107, 5-Chloro-2-({2-(4-fluorophenyl)-4-[6-(methylsulfonyl)pyridin-3-yl]-1,3-oxazol-5-yl}sulfanyl)pyrimidine]",pIC50,[1],7.62
same,pIC50,[2],7.04
same,pIC50,[3],7.96
"CCn1cc(-c2nc(-c3ccc(C(C)(C)O)nc3)c(Sc3ccc(Cl)cc3)o2)cn1 [Ex 111, 2-(5-{5-[(4-chlorophenyl)sulfanyl]-2-(1-ethyl-1H-pyrazol-4-yl)-1,3-oxazol-4-yl)pyridin-2-yl}propan-2-ol]",pIC50,[1],7.96
same,pIC50,[2],7.19
same,pIC50,[3],7.62
"CC(C)(O)c1ccc(-c2nc(-c3cncc(Cl)c3)oc2Sc2ccc(Cl)cn2)cn1 [Ex 119, 2-(5-{2-(5-Chloropyridin-3-yl)-5-[(5-chloropyridin-2-yl)sulfanyl]-1,3-oxazol-4-yl}pyridin-2-yl)propan-2-ol]",pIC50,[1],7.55
same,pIC50,[2],7.33
same,pIC50,[3],7.70
"N#CC1(c2ccc(-c3nc(-c4ccc(F)cc4)oc3Sc3ccc(Cl)cn3)cn2)CC(O)C1 (stereo not drawn) [Ex 122, 1-(5-{5-[(5-Chloropyridin-2-yl)sulfanyl]-2-(4-fluorophenyl)-1,3-oxazol-4-yl}pyridin-2-yl)-3-hydroxycyclobutanecarbonitrile]",pIC50,[1],6.79
same,pIC50,[2],6.32
same,pIC50,[3],6.84
